Results reported in US20100120789A1, “Compound” (priority 2005, published 2010).

SMILES | melting point
O=S(=O)(NC12CC3CC(CC(C3)C1)C2)c1cccs1 [STX1573, Thiophene-2-sulfonic acid adamantan-1-ylamide] | 129 to 131 °C
CC(C)(C)CC(=O)NCc1cccs1 [STX1639, 3,3-Dimethyl-N-thiophen-2-ylmethyl-butyramide] | 83 to 84 °C
CC(C(=O)NCc1cccs1)(c1ccccc1)c1ccccc1 [STX1640, 2,2-Diphenyl-N-thiophen-2-ylmethyl-propionamide] | 90 to 91 °C
CC1(C(=O)NCc2cccs2)CC1 [STX1641, 1-Methyl-cyclopropanecarboxylic acid (thiophen-2-yl methyl)-amide] | 70 to 71 °C
CC1(C(=O)NCc2cccs2)CCCCC1 [STX1642, 1-Methyl-cyclohexanecarboxylic acid(thiophen-2-ylmethyl)-amide] | 72 to 73 °C
O=C(NCCc1cccs1)C12CC3CC(CC1C3)C2 [STX1656, Hexahydro-2,5-methano-pentalene-3a-carboxylic acid(2-thiophen-2-yl-ethyl)-amide] | 113 to 114 °C
CC12CC3CC(C)(C1)CC(C(=O)NCc1cccs1)(C3)C2 [STX1671, 3,5-Dimethyl-adamantane-1-carboxylic acid(thiophen-2-ylmethyl)-amide] | 101 to 103 °C
CC12CC3CC(C)(C1)CC(C(=O)NCCc1cccs1)(C3)C2 [STX1672, 3,5-Dimethyl-adamantane-1-carboxylic acid(2-thiophen-2-yl-ethyl)-amide] | 131 to 132 °C
CC(C)(C)C(=O)NCc1cccs1 [STX1673, 2,2-Dimethyl-N-thiophen-2-ylmethyl-propionamide] | 64 to 65 °C
CC(C)(C)C(=O)NCCc1cccs1 [STX1674, 2,2-Dimethyl-N-(2-thiophen-2-yl-ethyl)-propionamide] | 79 to 80 °C
O=C(NCCc1cccs1)C12CC3CC(CC(O)(C3)C1)C2 [STX1676, 3-Hydroxy-adamantane-1-carboxylic acid(2-thiophen-2-yl-ethyl)-amide] | 118 to 119 °C
O=C(COCc1cccs1)C12CC3CC(CC(C3)C1)C2 [STX1692, 1-Adamantan-1-yl-2-(thiophen-2-ylmethoxy)-ethanone] | 57.2 to 58.3 °C
O=C(NCCc1cccs1)[C@H]1CC2C=CC1C2 (stereo partly drawn) [STX1707, Bicyclo[2.2.1]hept-5-ene-2-carboxylic acid(2-thiophen-2-yl-ethyl)-amide (exo)] | 71 to 72 °C
O=C(NCCc1cccs1)[C@@H]1CC2C=CC1C2 (stereo partly drawn) [STX1708, Bicyclo[2.2.1]hept-5-ene-2-carboxylic acid(2-thiophen-2-yl-ethyl)-amide (endo)] | 122 to 124 °C
CN(Cc1cccs1)C(=O)[C@H]1CC2C=CC1C2 (stereo partly drawn) [STX1709, Bicyclo[2.2.1]hept-5-ene-2-carboxylic acid methyl-thiophen-2-ylmethyl-amide (exo)] | 74 to 75 °C
O=C(NC12CC3CC(CC(C3)C1)C2)OCc1cccs1 [STX1711, Adamantan-1-yl-carbamic acid thiophen-2-ylmethyl ester] | 66 to 68 °C
O=C(NC12CC3CC(CC(C3)C1)C2)OCCc1cccs1 [STX1712, Adamantan-1-yl-carbamic acid 2-thiophen-2-yl-ethyl ester] | 67 to 69 °C
O=C(NCCc1cccs1)NC12CC3CC(CC(C3)C1)C2 [STX1714, 1-Adamantan-1-yl-3-(2-thiophen-2-yl-ethyl)-urea] | 138 to 142 °C

SMILES | melting point
O=C(N1CCc2sccc2C1)C12CC3CC(CC(C3)C1)C2 [STX1721, Adamantan-1-yl-(6,7-dihydro-4H-thieno[3,2-c]pyridin-5-yl)-methanone] | 141 to 143 °C
Cc1nc2cc(NCC(=O)C(C)(C)C)ccc2s1 [STX1740, 3,3-Dimethyl-1-(2-methyl-benzothiazol-5-ylamino)-butan-2-one] | 108 to 111 °C
CN(CCc1ccccn1)C(=O)C12CC3CC(CC(C3)C1)C2 [STX1887, Adamantane-1-carboxylic acid methyl-(2-pyridin-2-yl-ethyl)-amide] | 64 to 65 °C
[O-][S+](Cc1cn(C23CC4CC(CC(C4)C2)C3)nn1)c1cc(Cl)ccc1Cl (stereo not drawn) [STX1892, 1-Adamantan-1-yl-4-(2,5-dichloro-benzenesulfinylmethyl)-1H-[1,2,3]triazole] | 125 to 128 °C
COc1ccc(OCc2cn(C34CC5CC(CC(C5)C3)C4)nn2)cc1OC [STX1893, 1-Adamantan-1-yl-4-(3,4-dimethoxy-phenoxymethyl)-1H-[1,2,3]triazole] | 108 to 112 °C
Cn1ccnc1SCC(=O)C12CC3CC(CC(C3)C1)C2 [STX1898, 1-Adamantan-1-yl-2-(1-methyl-1H-imidazol-2-ylsulfanyl)-ethanone] | 65 to 69 °C
O=C(CSc1cccs1)C12CC3CC(CC(C3)C1)C2 [STX1902, 1-Adamantan-1-yl-2-(thiophen-2-ylsulfanyl)-ethanone] | 69 to 72 °C
O=C(C[S+]([O-])Cc1ccco1)C12CC3CC(CC(C3)C1)C2 (stereo not drawn) [STX1908, 1-Adamantan-1-yl-2-(furan-2-ylmethanesulfinyl)-ethanone] | 75 to 79 °C
CN(CCc1cccs1)C(=O)C12CC3CC(CC(C3)C1)C2 [STX1910, Adamantane-1-carboxylic acid methyl-(2-thiophen-2-yl-ethyl)-amide] | 95 to 99 °C
Cn1ccnc1[S+]([O-])CC(=O)C12CC3CC(CC(C3)C1)C2 (stereo not drawn) [STX1924, 1-Adamantan-1-yl-2-(1-methyl-1H-imidazole-2-sulfinyl)-ethanone] | 86 to 89 °C
O=C(C[S+]([O-])Cc1cccs1)C12CC3CC(CC(C3)C1)C2 (stereo not drawn) [STX1929, 1-Adamantan-1-yl-2-(thiophen-2-ylmethanesulfinyl)-ethanone] | 95 to 98 °C
O=C(C[S+]([O-])c1cccs1)C12CC3CC(CC(C3)C1)C2 (stereo not drawn) [STX1930, 1-Adamantan-1-yl-2-(thiophene-2-sulfinyl)-ethanone] | 114 to 115.5 °C
Cc1ccc(CN(C)C(=O)C23CC4CC(CC(C4)C2)C3)cc1 [STX2003, Adamantane-1-carboxylic acid methyl-(4-methyl-benzyl)-amide] | 93 to 95 °C
O=C(N1CCN(c2ccccn2)CC1)C12CC3CC(CC(C3)C1)C2 [STX2065, Adamantan-1-yl-(4-pyridin-2-yl-piperazin-1-yl)-methanone] | 137 to 140 °C
Cc1ccc(CN(C)C(=O)C23CC4CC(CC(C4)C2)C3)s1 [STX2067, Adamantane-1-carboxylic acid methyl-(5-methyl-thiophen-2-ylmethyl)-amide] | 83 to 85.5 °C
O=C(N1CCN(c2ccc(Cl)cc2)CC1)C12CC3CC(CC(C3)C1)C2 [STX2120, Adamantan-1-yl-[4-(4-chloro-phenyl)-piperazin-1-yl]methanone] | 183 to 185 °C
Cc1cccc(CN(C)C(=O)C23CC4CC(CC(C4)C2)C3)n1 [STX2134, Adamantane-1-carboxylic acid methyl-(6-methyl-pyridin-2-ylmethyl)-amide] | 76 to 77.5 °C
CN(Cc1cccnc1)C(=O)C12CC3CC(CC(C3)C1)C2 [STX2135, Adamantane-1-carboxylic acid methyl-pyridin-3-ylmethyl-amide] | 57 to 59.5 °C
